Values after ≈ are worked out from the molar mass of the structure shown. Values joined by “and” are separate entries in the source; they are usually repeats but may differ in a detail not shown here. Equal entries are not always repeated. “Also recorded” adds a separate entry of the source.
What was measured:
[1] = molecular target: T1, Saccharomyces cerevisiae Pma1 (Saccharomyces cerevisiae, UniProt P05030); experiment: ATP hydrolysis inhibition, S. cerevisiae Pma1; format: biochemical; conditions: for Pma1 inhibition (in words): Pma1 species not specified; for Selectivity among P-type ATPases (in words): Pma1 versus SERCA and Na+,K+-ATPase
T1 construct: containing the full-length cDNA of the S. cerevisiae plasma membrane H^+-ATPase isoform PMA1; made in house; host or cells: Saccharomyces cerevisiae RS72
T1 sequence (P05030 whole entry, canonical isoform): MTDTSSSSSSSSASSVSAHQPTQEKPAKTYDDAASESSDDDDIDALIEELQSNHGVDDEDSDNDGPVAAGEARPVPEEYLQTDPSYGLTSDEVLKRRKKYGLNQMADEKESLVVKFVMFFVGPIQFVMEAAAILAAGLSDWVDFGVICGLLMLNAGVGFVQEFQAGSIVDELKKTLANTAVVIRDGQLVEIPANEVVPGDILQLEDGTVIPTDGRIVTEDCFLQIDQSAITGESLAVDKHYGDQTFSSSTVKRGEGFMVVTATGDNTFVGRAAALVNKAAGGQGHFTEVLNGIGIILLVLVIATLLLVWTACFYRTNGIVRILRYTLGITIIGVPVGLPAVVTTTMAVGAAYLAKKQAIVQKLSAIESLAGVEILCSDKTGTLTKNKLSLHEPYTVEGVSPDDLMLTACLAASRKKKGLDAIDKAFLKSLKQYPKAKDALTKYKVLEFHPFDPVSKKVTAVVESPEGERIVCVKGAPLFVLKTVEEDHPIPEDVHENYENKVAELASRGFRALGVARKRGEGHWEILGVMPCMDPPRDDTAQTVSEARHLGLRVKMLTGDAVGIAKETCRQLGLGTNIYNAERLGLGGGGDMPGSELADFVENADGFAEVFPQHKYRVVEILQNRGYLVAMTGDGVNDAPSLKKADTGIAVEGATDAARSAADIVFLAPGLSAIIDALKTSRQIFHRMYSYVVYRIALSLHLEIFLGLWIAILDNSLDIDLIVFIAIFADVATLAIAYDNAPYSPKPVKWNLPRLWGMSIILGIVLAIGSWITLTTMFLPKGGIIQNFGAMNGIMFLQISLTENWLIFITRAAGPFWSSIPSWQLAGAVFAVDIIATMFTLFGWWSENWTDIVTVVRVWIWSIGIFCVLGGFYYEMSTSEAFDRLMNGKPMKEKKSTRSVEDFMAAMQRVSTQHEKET
Method: The compound libraries were purchased from Enamine Ltd, Ukraine and Chembridge Corp, USA. Library screening was performed in 96 well plates format and each compound was screened in the ATP hydrolysis assay at a final concentration of 20 μM. DMSO was used to determine the maximal ATPase activity and a blank with ATP in absence of Pma1 protein was used to determine the level of spontaneous ATP hydrolysis and used to determine background level. The percentage of compound inhibition was evaluated by subtracting the blank from each data point and normalizing to maximal ATP hydrolysis activity. […] Pma1 inhibitory hit compounds (IC50 <20 μM) with antifungal activity on both S. cerevisiae and C. albicans (MIC <100 μM) were re-purchased and re-evaluated to confirm the potency and identity of the compound.
Plasma membranes containing Pma1 were isolated from Saccharomyces cerevisiae RS72 cells containing the full-length cDNA of the S. cerevisiae plasma membrane H^+-ATPase isoform PMA1 under control of the PMA1 promoter as described.
(§1) ATPase activity was determined by measuring the amount of liberated phosphate from ATP hydrolysis. The ATPase assay was performed in 96 well plates in a final reaction volume of 60 μL. 0.1–0.2 μg/well of DOC extracted SERCA membrane or the Na^+,K^+-ATPase was used, while 1–2.5 μg/well was used of the Pma1 membrane preparation. Reactions, including protein membrane preparation and various concentrations of exogenously added compounds, were conducted in the following buffers; Pma1 buffer: 17.5 mM MOPS-NaOH pH 7, 7 mM MgSO4, 44 mM KNO3 (vacuolar ATPase inhibitor), 22 mM NaN3 (mitochondrial ATPase inhibitor), 0.22 mM Na2MoO4 (acid phosphatase inhibitor); SERCA buffer: 9 mM MOPS-NaOH pH 7, 2.7 mM MgCl2, 0.1 mM CaCl2 and 72 mM KCl. Na^+,K^+-ATPase buffer: 30 mM MOPS-NaOH pH 7, 40 mM NaCl, 4 mM MgCl2 and 20 mM KCl. Reactions were initiated by the addition of Na-ATP to a final concentration of 2.5 mM (Pma1 and Na^+,K^+-ATPase) or 5 mM (SERCA), followed by 30 minutes incubation at 30°C. […] Absorption was measured at 860 nm after additional 30 minutes incubation at RT.

[2] = molecular target: T2, Mammalian SERCA (Oryctolagus cuniculus, UniProt P04191); experiment: ATP hydrolysis inhibition, SERCA; format: biochemical; conditions: rabbit SERCA, racemic compounds, n = 3
T2 construct: Ca^2+ ATPase was provided in SR membranes purified by extraction with a low concentration of deoxycholate (DOC); from tissue; host or cells: sarcoplasmic reticulum membranes (rabbit)
T2 sequence (P04191 1-994 isoform P04191-2): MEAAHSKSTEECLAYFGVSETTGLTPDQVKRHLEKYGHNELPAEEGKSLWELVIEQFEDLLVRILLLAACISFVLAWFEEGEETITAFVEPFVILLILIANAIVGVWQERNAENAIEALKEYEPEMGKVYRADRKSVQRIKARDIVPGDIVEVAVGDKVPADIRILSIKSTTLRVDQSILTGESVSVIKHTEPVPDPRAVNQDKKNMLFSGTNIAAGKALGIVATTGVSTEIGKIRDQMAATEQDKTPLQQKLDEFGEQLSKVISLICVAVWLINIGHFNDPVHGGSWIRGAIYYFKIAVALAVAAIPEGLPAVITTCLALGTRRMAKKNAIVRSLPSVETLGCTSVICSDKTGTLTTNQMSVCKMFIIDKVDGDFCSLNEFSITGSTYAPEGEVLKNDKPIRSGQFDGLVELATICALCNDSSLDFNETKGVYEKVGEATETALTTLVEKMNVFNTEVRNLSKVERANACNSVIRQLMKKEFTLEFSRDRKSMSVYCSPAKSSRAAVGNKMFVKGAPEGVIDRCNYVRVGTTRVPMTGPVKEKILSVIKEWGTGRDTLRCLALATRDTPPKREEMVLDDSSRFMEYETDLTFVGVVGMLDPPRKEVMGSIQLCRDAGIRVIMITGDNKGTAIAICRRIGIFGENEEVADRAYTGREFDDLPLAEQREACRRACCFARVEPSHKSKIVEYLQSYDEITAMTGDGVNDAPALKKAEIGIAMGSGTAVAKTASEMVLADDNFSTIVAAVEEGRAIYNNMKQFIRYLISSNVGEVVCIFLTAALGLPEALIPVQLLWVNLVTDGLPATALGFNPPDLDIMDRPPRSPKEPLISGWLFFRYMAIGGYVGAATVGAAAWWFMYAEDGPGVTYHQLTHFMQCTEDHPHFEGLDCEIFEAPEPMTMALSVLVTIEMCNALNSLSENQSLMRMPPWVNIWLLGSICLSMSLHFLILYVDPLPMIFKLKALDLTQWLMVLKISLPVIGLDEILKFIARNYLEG
Excerpt: All membrane batches were validated by determining ATPase activity, pH optimum and orthovanadate sensitivity. Sarco/endoplasmatic reticulum (SR) Ca^2+ ATPase was provided in SR membranes purified by extraction with a low concentration of deoxycholate (DOC) and was kindly provided by Claus E. Olesen and Jesper V. Møller, Aarhus University and prepared as described in [43]. The pig kidney Na^+,K^+-ATPase purification included a mild SDS treatment of isolated microsomes followed by a washing step and was kindly provided by Natalya Fedosova, Aarhus University and prepared as described in [44].
as §1

[3] = system: Saccharomyces cerevisiae ATCC 9763; experiment: Fungal growth inhibition, S. cerevisiae ATCC 9763; format: cell-based; conditions: ATCC9763, MIC defined as 50% growth inhibition, 24 h, n = 3–6
Excerpt: (§2) Fungal isolates were purchased from American Type Culture Collection, except for C. glabrata strain Cg003, which was kindly provided by Julius Subik, Comenius University in Bratislava, Slovak Republic. Cg003 is a clinical isolate, characterized to be resistant to fluconazole and itraconazole due to overexpression of the multidrug resistance efflux pumps Cdr1p and Cdr2p. Saccharomyces cerevisiae (ATCC 9763), Candida albicans (ATCC 90028), Candida albicans (SC5314), Candida glabrata (ATCC 90030), Candida glabrata (Cg003) and Candida krusei (ATCC 6258) were grown in Sabouraud broth (40 g/L D-glucose, 10 g/L peptone, pH 5.6) or YPD (10 g/L yeast extract, 20 g/L Bacto-peptone, 20 g/L glucose) medium to mid log phase, aliquoted into 20% (v/v) glycerol and cryopreserved as stocks at -80°C. For each growth assay, cells from these stocks were diluted in sterile water to OD600 = 0.025, which corresponds to a final starting inoculum of 0.5–2.5 x 10^5 CFU/mL. Growth assays were carried out by pipetting 3 μL compound dissolved in DMSO, 100 μL cell suspension and 97 μL 2 x RPMI media (20.8 g/L RPMI-1640 (Sigma-Aldrich catalog number R6504) 330 mM MOPS, 36 g/L glucose) into a microtiter plate and incubating for 24 h at 34°C, followed by OD measurement at 490 nm. The minimum inhibitory concentration (MIC) was defined as 50% growth inhibition of the microorganism as this measurement best represented the antifungal activity of the compounds. Standard errors were typically below 5%.

[4] = system: Candida krusei ATCC 6258; experiment: Fungal growth inhibition, C. krusei; format: cell-based; conditions: Pichia kudriavzevii, ATCC6258; MIC defined as 50% growth inhibition, 24 h, n = 3–6
Excerpt: as §2

[5] = system: HepG2 cells; experiment: Hep G2 viability assay (XTT); format: cell-based, human; conditions: for EC50: Homo sapiens, HepG2 proliferation, 72 h, XTT; for Fungal growth inhibition versus HepG2 proliferation (in words): comparison of MIC and HepG2 EC50
Method: In each well of a 96 well tissue culture plate (Greiner, catalog number GR-655180) 10,000 human hepatocyte HepG2 cells (Sigma-Aldrich, catalog number 85011430) were plated in 200 μL growth media (EMEM (Sigma-Aldrich, catalog number M2279), 2 mM L-Glutamine (Biological Industries, catalog number 03-020-1B), 1% non-essential amino acids (Biosera, catalog number XC-E1154/100), 10% fetal bovine serum (Biological Industries, catalog number BI-04-007-1A)), and incubated overnight at 37°C and 5% CO2. The following day, fresh growth media plus 2 μL compound in DMSO was added. The plate was incubated for a further 72 h at 37°C and 5% CO2. The media was replaced with 100 μL freshly prepared 0.5 mg/mL XTT sodium salt solution (Sigma-Aldrich, catalog number X4251) in RPMI-1640 (Sigma-Aldrich, catalog number R7509) with 3.83 μg/mL phenazine methosulfate (Sigma-Aldrich, catalog number P9625) and incubated 2–3 h at 37°C and 5% CO2. The color reaction was measured on a Victor X5 plate reader (Perkin-Elmer) at OD450, and the half maximal effective concentration (EC50) was calculated indicating the potency of tetrahydrocarbazole derivatives to inhibit HepG2 cell growth. Tamoxifen (Sigma-Aldrich, catalog number 85256) was used as a positive control compound while DMSO served as a negative control.

[6] = ATP hydrolysis IC50 Saccharomyces cerevisiae Pma1, racemic compounds, n = 3
[7] = Pma1 IC50, Pma1 species not specified

`NC1CCCc2c1[nH]c1cc(OC(F)(F)F)ccc21` (stereo not shown) [Compound 4] was tested, and the IC50 [1, 6] was 75 ± 3.2 µM, the “Pma1 inhibition (in words)” value [1] was “weak inhibitors of Pma1” and the IC50 [2] was 1.55 ± 0.06 µM. The MIC [3] was 7.5 µM (≈ 2.03 µg/mL), the MIC [4] was 66 ± 16 µM (≈ 17.8 µg/mL) and the EC50 [5] was 3.5 ± 1.87 µM. The “Fungal growth inhibition versus HepG2 proliferation (in words)” value [5] was “more potent at inhibiting HepG2 proliferation than fungal growth”.

`CN1CCC(NC2CCCc3c2[nH]c2cc(OC(F)(F)F)ccc32)CC1` (stereo not shown) [Compound 5] was tested, and the IC50 [1, 6] was 85.9 ± 10.3 µM, the “Pma1 inhibition (in words)” value [1] was “weak inhibitors of Pma1” and the IC50 [2] was 61.7 ± 18.8 µM. For the same molecule, the MIC [3] was 11.6 ± 8.1 µM (≈ 4.26 µg/mL), the MIC [4] was 150 µM (≈ 55.1 µg/mL) and the EC50 [5] was 4.7 ± 3.4 µM. For the same molecule, the “Fungal growth inhibition versus HepG2 proliferation (in words)” value [5] was “more potent at inhibiting HepG2 proliferation than fungal growth”.

`FC(F)(F)Oc1ccc2c3c([nH]c2c1)C(NCc1ccc(Cl)cc1)CCC3` (stereo not shown) [Compound 6] was tested, and the IC50 [1, 6] was 2.79 ± 0.36 µM, the “Selectivity among P-type ATPases (in words)” value [1] was “more potent in inhibiting SERCA and the Na^+,K^+-ATPase than Pma1” and the IC50 [2] was 0.09 ± 0.03 µM. The MIC [3] was 5 ± 2.9 µM (≈ 1.97 µg/mL), the MIC [4] was 7.5 µM (≈ 2.96 µg/mL) and the EC50 [5] was 16.7 ± 3.54 µM. For the same molecule, the “Fungal growth inhibition versus HepG2 proliferation (in words)” value [5] was “inhibited fungal growth more strongly than HepG2 proliferation”.

With `FC(F)(F)Oc1ccc2c3c([nH]c2c1)C(NCc1ccc(Br)cc1)CCC3` (stereo not shown) [Compound 7] the IC50 [1, 6] was 2.43 ± 0.39 µM, the “Selectivity among P-type ATPases (in words)” value [1] was “more potent in inhibiting SERCA and the Na^+,K^+-ATPase than Pma1” and the IC50 [2] was 0.11 ± 0.06 µM. It also gave an MIC [3] of 1.5 µM (≈ 0.659 µg/mL), an MIC [4] of 4.7 µM (≈ 2.06 µg/mL) and an EC50 [5] of 14.9 ± 0.26 µM.

In the case of `FC(F)(F)Oc1ccc2c3c([nH]c2c1)C(NCCOc1ccc(Cl)cc1)CCC3` (stereo not shown) [Compound 8], the IC50 [1, 6] is reported as 3.57 ± 1.81 µM, the “Selectivity among P-type ATPases (in words)” value [1] is reported as “more potent in inhibiting SERCA and the Na^+,K^+-ATPase than Pma1” and the IC50 [2] is reported as 0.26 ± 0.06 µM. For the same molecule, the MIC [3] was 6.2 ± 2.6 µM (≈ 2.63 µg/mL), the MIC [4] was 12.9 ± 9.4 µM (≈ 5.48 µg/mL) and the EC50 [5] was 13.6 ± 1.33 µM. For the same molecule, the “Fungal growth inhibition versus HepG2 proliferation (in words)” value [5] was “inhibited fungal growth more strongly than HepG2 proliferation”.

`FC(F)(F)Oc1ccc2[nH]c3c(c2c1)CCCC3NCc1ccc(-c2ccccn2)cc1` (stereo not shown) [Compound 9] was tested, and the IC50 [1, 6] was 4.73 ± 2.23 µM, the IC50 [1, 7] was 5 to 7 µM and the IC50 [2] was 3.27 ± 1.89 µM. For the same molecule, the MIC [3] was 7.5 µM (≈ 3.28 µg/mL), the MIC [4] was 7.5 ± 4.8 µM (≈ 3.28 µg/mL) and the EC50 [5] was 12.5 ± 3.68 µM. The “Fungal growth inhibition versus HepG2 proliferation (in words)” value [5] was “inhibited fungal growth more strongly than HepG2 proliferation”.

In the case of `Clc1ccc2[nH]c3c(c2c1)CCCC3NCc1ccc(-c2ccccc2)cc1` (stereo not shown) [Compound 10], the IC50 [1, 6] is reported as 7 µM and 6.69 µM, the IC50 [1, 7] is reported as 5 to 7 µM and the IC50 [2] is reported as 5.54 ± 3.16 µM. For the same molecule, the MIC [3] was 7.5 µM (≈ 2.9 µg/mL), the MIC [4] was 6.8 ± 4.6 µM (≈ 2.63 µg/mL) and the EC50 [5] was 18.6 ± 1.12 µM. For the same molecule, the “Fungal growth inhibition versus HepG2 proliferation (in words)” value [5] was “inhibited fungal growth more strongly than HepG2 proliferation”.

`Cn1c2c(c3cc(Cl)ccc31)CCCC2NCc1ccc(-c2ccccc2)cc1` (stereo not shown) [Compound 11] was tested, and the IC50 [1, 6] was > 20 µM, the “Pma1 inhibition (in words)” value [1] was “no activity against Pma1; also recorded: no inhibitory effect on Pma1” and the IC50 [2] was > 20 µM. For the same molecule, the MIC [3] was > 20 µM, the MIC [4] was > 20 µM and the EC50 [5] was > 20 µM.

`CN(Cc1ccc(-c2ccccc2)cc1)C1CCCc2c1[nH]c1ccc(Cl)cc21` (stereo not shown) [Compound 12] was tested, and the IC50 [1, 6] was > 20 µM, the “Pma1 inhibition (in words)” value [1] was “no activity against Pma1; also recorded: no inhibitory effect on Pma1” and the “Selectivity among P-type ATPases (in words)” value [1] was “weakly selective for Na^+,K^+-ATPase only”. For the same molecule, the IC50 [2] was > 20 µM, the MIC [3] was > 20 µM and the MIC [4] was > 20 µM. The EC50 [5] was > 20 µM.
